What all share (type): functional
One experiment concerns Pseudomonas aeruginosa. In words: Minimum inhibitory concentration against Pseudomonas aeruginosa (CECT108).
Another experiment has as its system Escherichia coli. In words: Minimum inhibitory concentration against Escherichia coli (CECT405).
Another experiment relates to Proteus mirabilis. In words: Minimum inhibitory concentration against Proteus mirabilis (CECT170).
For the next experiment, the system named is Staphylococcus aureus. In words: Minimum Inhibitory concentration against Staphylococcus aureus (CECT240).

Converted amounts (≈) assume the structure as drawn.

We go through eight molecules from ChEMBL document CHEMBL1133303, “Molecular topology: a useful tool for the search of new antibacterials” (2000).

Consider `COc1ccc([C@@H]2CC(=O)c3c(O)cc(O[C@@H]4O[C@H](CO)[C@@H](O)[C@H](O)[C@H]4O[C@@H]4O[C@@H](C)[C@H](O)[C@@H](O)[C@H]4O)cc3O2)cc1O` [NEOHESPERIDIN], for which the MIC90 against Pseudomonas aeruginosa, in the experiment with Escherichia coli, with Proteus mirabilis and against Staphylococcus aureus was 300 µg/mL (≈ 491 µM) throughout.

For the molecule `O=c1c(O)c(-c2ccc(O)cc2O)oc2cc(O)cc(O)c12` [MORIN], the MIC90 with Pseudomonas aeruginosa amounted to 120 µg/mL (≈ 397 µM); in the experiment on Escherichia coli, 1380 µg/mL (≈ 4570 µM); against Proteus mirabilis, 120 µg/mL (≈ 397 µM); against Staphylococcus aureus, 120 µg/mL (≈ 397 µM).

Take `COc1cc2ccc(=O)oc2c(O[C@@H]2O[C@H](CO)[C@@H](O)[C@H](O)[C@H]2O)c1O` [FRAXINE]: the MIC90 against Pseudomonas aeruginosa, against Escherichia coli, against Proteus mirabilis and against Staphylococcus aureus was 1450 µg/mL (≈ 3920 µM) each time.

In the case of `CC(=O)Nc1cc(C)cc(/N=N/c2cc([N+](=O)[O-])cc([N+](=O)[O-])c2O)c1O`, the MIC90 in the experiment on Pseudomonas aeruginosa, with Escherichia coli, with Proteus mirabilis and against Staphylococcus aureus was 130 µg/mL (≈ 346 µM) throughout.

For the molecule `O=C(O)c1cccnc1Nc1cccc(C(F)(F)F)c1` [NIFLUMIC ACID], the MIC90 in the experiment on Escherichia coli stood at 1800 µg/mL (≈ 6380 µM); in the experiment on Proteus mirabilis it was 1800 µg/mL (≈ 6380 µM); against Staphylococcus aureus, 160 µg/mL (≈ 567 µM).

As to `O=C(N[C@H](CO)[C@H](O)c1ccc([N+](=O)[O-])cc1)C(Cl)Cl` [CHLORAMPHENICOL], the MIC90 against Pseudomonas aeruginosa came to 100 µg/mL (≈ 309 µM); in the experiment with Escherichia coli, 10 µg/mL (≈ 30.9 µM); against Proteus mirabilis, 100 µg/mL (≈ 309 µM); with Staphylococcus aureus it was 100 µg/mL (≈ 309 µM).

For the molecule `COc1ccc([C@@H]2CC(=O)c3c(O)cc(O[C@@H]4O[C@H](CO[C@@H]5O[C@@H](C)[C@H](O)[C@@H](O)[C@H]5O)[C@@H](O)[C@H](O)[C@H]4O)cc3O2)cc1O` [HESPERIDIN], the figures for the MIC90 against Pseudomonas aeruginosa and against Staphylococcus aureus were 25 µg/mL (≈ 40.9 µM) and 8 µg/mL (≈ 13.1 µM), respectively.

Consider SILYMARIN, for which the MIC90 in the experiment on Pseudomonas aeruginosa came out at 200 µg/mL; against Proteus mirabilis, 700 µg/mL; with Staphylococcus aureus it was 80 µg/mL.
